Assay results from patent US9867796B2, “Combination of a leucine source and an omega-3 unsaturated fatty acid source for use in the treatment of hypercalcaemia” (N.V. Nutricia, priority 2009, dated 2018).

Legend:
[1] = test system: tumour-bearing mice (Murine C-26 adenocarcinoma cells); test: Bone mineral density in C-26 tumour-bearing mice on experimental diets (experiment A); format: in vivo; settings: diet added to AIN93-M high protein, day 20, compared to TB on control diet (FIG. 1A)
[2] = test system: tumour-bearing mice (Murine C-26 adenocarcinoma cells); test: Plasma calcium levels in C-26 tumour-bearing mice, single or combined ingredients (experiment A); format: in vivo; settings: diet added to AIN93-M high protein, day 20, compared to TB on control diet (FIG. 1B)

CC(C)C[C@H](N)C(=O)O [leucine] was tested, and the bone mineral density [1] was “did not result in significant changes compared to TB” and the plasma calcium levels [2] was “no effect”.
